# Assays:
# Test in all cases: area under dose-response curve (viability, 1 nM-10 uM) (fraction (0-1)); higher = more sensitive
# Conditions in all cases: 72 h
# [1] = test system: myeloid leukemia patient primary cells Pat.14
# Protocol: (§1)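 AUC (0–1, higher = more sensitive) of the 5-point dose–response (1 nM–10 µM, 72 h, CellTiter-Glo) in primary AML/CML patient mononuclear cells. 0.030103 is the floor for inactive compounds.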
# [2] = test system: myeloid leukemia patient primary cells Pat.1
# Protocol: as §1
# [3] = test system: myeloid leukemia patient primary cells Pat.8
# Protocol: as §1
# [4] = test system: myeloid leukemia patient primary cells Pat.2
# Protocol: as §1
# [5] = test system: myeloid leukemia patient primary cells Pat.12
# Protocol: as §1
# [6] = test system: myeloid leukemia patient primary cells Pat.13
# Protocol: as §1
# [7] = test system: myeloid leukemia patient primary cells Pat.15
# Protocol: as §1
# [8] = test system: myeloid leukemia patient primary cells Pat.11
# Protocol: as §1
# [9] = test system: myeloid leukemia patient primary cells Pat.3
# Protocol: as §1
# [10] = test system: myeloid leukemia patient primary cells Pat.5
# Protocol: as §1
# [11] = test system: myeloid leukemia patient primary cells Pat.4
# Protocol: as §1
# [12] = test system: myeloid leukemia patient primary cells Pat.7
# Protocol: as §1
# [13] = test system: myeloid leukemia patient primary cells Pat.6
# Protocol: as §1
# [14] = test system: myeloid leukemia patient primary cells Pat.10
# Protocol: as §1
# [15] = test system: myeloid leukemia patient primary cells Pat.9
# Protocol: as §1
# HL-60 = test system: HL-60
# Procedure, shortened: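 Area under the curve, where listed, was derived from four-parameter log-logistic fits with drc and PharmacoGx. These fits used CellTiter-Glo viability from HL-60 cells in RPMI 1640 with 10% FBS, normalised to DMSO wells and wells holding 10 μM proteasome inhibitor. The full library was rescreened on 384-well plates in duplicate at five tenfold concentrations, 1–10,000 nM, with DMSO or 100 nM of one of three metabolic inhibitors, for 72 h at 37 °C, 5% CO2.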
# [16] = co-treatment: GSK2194069 100 nM
# [17] = co-treatment: pictilisib 100 nM
Compound,area under dose-response curve [1],area under dose-response curve [2],area under dose-response curve [3],area under dose-response curve [4],area under dose-response curve [5],area under dose-response curve [6],area under dose-response curve [7],area under dose-response curve [8],area under dose-response curve [9],area under dose-response curve [10],area under dose-response curve [11],area under dose-response curve [12],area under dose-response curve [13],area under dose-response curve [14],area under dose-response curve [15],area under dose-response curve (HL-60; co-treatment: AZD3965 100 nM),area under dose-response curve (HL-60; co-treatment: DMSO vehicle),area under dose-response curve (HL-60; [16]),area under dose-response curve (HL-60; [17])
C[C@]12O[C@H](C[C@]1(O)CO)n1c3ccccc3c3c4c(c5c6ccccc6n2c5c31)CNC4=O [Lestaurtinib],0.261,0.654,0.211,0.232,0.125,0.23,0.533,0.235,0.363,0.929,0.622,0.191,0.096,0.124,0.813,0.381,0.293,0.335,0.452
C[C@H]1O[C@@H](O[C@H]2[C@@H](O)C[C@H](O[C@H]3[C@@H](O)C[C@H](O[C@H]4CC[C@@]5(C)[C@H](CC[C@@H]6[C@@H]5C[C@@H](O)[C@]5(C)[C@@H](C7=CC(=O)OC7)CC[C@]65O)C4)O[C@@H]3C)O[C@@H]2C)C[C@H](O)[C@@H]1O [Digoxin],0.363,0.348,0.425,0.346,0.275,0.384,0.493,0.471,0.624,0.611,0.42,< 0.0301,0.328,< 0.0301,0.609,0.459,0.479,0.423,0.486
